Measured values from ChEMBL document CHEMBL3259530, “Scaffold hopping approach to a new series of smoothened antagonists” (Bioorg Med Chem Lett, 2014).

Molecular target: Protein smoothened (Homo sapiens, UniProt Q99835)
Test: Inhibition of Smo receptor (unknown origin) expressed in NIH3T3 cells assessed as inhibition of Smo agonist SAG-induced GRE activation after 30 hrs by luciferase reporter gene assay
Format: cell-based

Sequence of Protein smoothened (Q99835 whole entry): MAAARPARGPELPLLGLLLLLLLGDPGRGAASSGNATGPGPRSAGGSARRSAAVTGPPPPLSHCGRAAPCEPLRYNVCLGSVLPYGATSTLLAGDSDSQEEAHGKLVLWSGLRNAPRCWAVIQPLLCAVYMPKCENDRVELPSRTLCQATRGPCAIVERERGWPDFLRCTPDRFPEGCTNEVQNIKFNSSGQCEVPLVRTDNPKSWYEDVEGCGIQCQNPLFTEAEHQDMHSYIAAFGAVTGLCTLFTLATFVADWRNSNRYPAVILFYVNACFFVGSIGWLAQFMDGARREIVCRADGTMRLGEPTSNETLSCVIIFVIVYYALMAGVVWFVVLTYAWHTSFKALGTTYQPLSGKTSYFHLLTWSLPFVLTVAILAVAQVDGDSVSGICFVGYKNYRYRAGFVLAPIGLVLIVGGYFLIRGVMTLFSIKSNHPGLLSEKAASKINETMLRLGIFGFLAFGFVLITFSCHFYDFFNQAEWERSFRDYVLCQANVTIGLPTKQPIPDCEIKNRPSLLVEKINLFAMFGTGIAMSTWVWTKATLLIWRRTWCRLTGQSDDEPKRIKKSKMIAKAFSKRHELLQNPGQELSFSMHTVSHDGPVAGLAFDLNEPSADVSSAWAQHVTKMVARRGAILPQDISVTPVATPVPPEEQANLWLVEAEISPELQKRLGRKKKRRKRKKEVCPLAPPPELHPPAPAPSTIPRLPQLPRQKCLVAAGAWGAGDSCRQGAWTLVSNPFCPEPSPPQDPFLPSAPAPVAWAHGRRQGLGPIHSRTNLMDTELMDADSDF

| IC50 [nM] | SMILES |
| --- | --- |
| 1300 | CCNC(=O)c1cn2c(n1)CN(c1cc(-c3ncc(C)cc3C)c(Cl)cn1)CC2 |
| 690 | CCOC(=O)c1cn2c(n1)CN(c1cc(-c3ncc(C)cc3C)c(Cl)cn1)CC2 |
| > 10000 | Cc1cnc(-c2cc(N3CCn4cc(C(=O)O)nc4C3)ncc2Cl)c(C)c1 |
| 2700 | CNC(=O)c1cn2c(n1)CN(c1cc(-c3ncc(C)cc3C)c(Cl)cn1)CC2 |
| 520 | Cc1cnc(-c2cc(N3CCn4cc(C(=O)NCC5CC5)nc4C3)ncc2Cl)c(C)c1 |
| 4100 | Cc1cnc(-c2cc(N3CCn4cc(C(=O)N(C)CCO)nc4C3)ncc2Cl)c(C)c1 |
| 270 | Cc1cnc(-c2cc(N3CCn4cc(C(=O)N5CCCC5)nc4C3)ncc2Cl)c(C)c1 |
| 790 | Cc1cnc(-c2cc(N3CCn4cc(C(=O)N5CCOCC5)nc4C3)ncc2Cl)c(C)c1 |
| > 10000 | Cc1cnc(-c2cc(N3CCn4cc(C(=O)N5CC(O)C5)nc4C3)ncc2Cl)c(C)c1 |
| > 10000 | Cc1cnc(-c2cc(N3CCn4cc(C(=O)N5CCC(O)C5)nc4C3)ncc2Cl)c(C)c1 (centres undefined) |
| 550 | COC[C@H]1CCCN1C(=O)c1cn2c(n1)CN(c1cc(-c3ncc(C)cc3C)c(Cl)cn1)CC2 |
| 1200 | Cc1cnc(-c2cc(N3CCn4cc(C(=O)N5CCC(O)CC5)nc4C3)ncc2Cl)c(C)c1 |
| 1500 | Cc1cnc(-c2cc(N3CCn4cc(C(=O)N5CC(C)NC(C)C5)nc4C3)ncc2Cl)c(C)c1 (centres undefined) |
| 300 | Cc1cnc(-c2cc(N3CCn4cc(C(=O)Nc5ccccc5)nc4C3)ncc2Cl)c(C)c1 |
| 350 | Cc1cnc(-c2cc(N3CCn4cc(C(=O)Nc5ccccc5F)nc4C3)ncc2Cl)c(C)c1 |
| 87 | Cc1cnc(-c2cc(N3CCn4cc(C(=O)Nc5cccc(F)c5)nc4C3)ncc2Cl)c(C)c1 |
| 440 | Cc1cnc(-c2cc(N3CCn4cc(C(=O)Nc5ccc(F)cc5)nc4C3)ncc2Cl)c(C)c1 |
| 420 | Cc1cnc(-c2cc(N3CCn4cc(C(=O)Nc5ccc(F)c(F)c5)nc4C3)ncc2Cl)c(C)c1 |
| 270 | Cc1cnc(-c2cc(N3CCn4cc(C(=O)Nc5ccccn5)nc4C3)ncc2Cl)c(C)c1 |
| 200 | Cc1cnc(-c2cc(N3CCn4cc(C(=O)Nc5cccnc5)nc4C3)ncc2Cl)c(C)c1 |
| 380 | Cc1cnc(-c2cc(N3CCn4cc(C(=O)OC(C)C)nc4C3)ncc2Cl)c(C)c1 |
| 270 | Cc1cnc(-c2cc(N3CCn4cc(C(=O)OCC5CC5)nc4C3)ncc2Cl)c(C)c1 |
| 740 | Cc1cnc(-c2cc(N3CCn4cc(C(=O)OC5CCCC5)nc4C3)ncc2Cl)c(C)c1 |
| 960 | Cc1cnc(-c2cc(N3CCn4cc(C(=O)Oc5ccccc5)nc4C3)ncc2Cl)c(C)c1 |
| 4100 | Cc1cnc(-c2cc(N3CCn4cc(CO)nc4C3)ncc2Cl)c(C)c1 |
| 910 | Cc1cnc(-c2cc(N3CCn4cc(CN5CCOCC5)nc4C3)ncc2Cl)c(C)c1 |
| 1800 | Cc1cnc(-c2cc(N3CCn4cc(NC(=O)C(F)(F)F)nc4C3)ncc2Cl)c(C)c1 |
| 890 | CCC(=O)Nc1cn2c(n1)CN(c1cc(-c3ncc(C)cc3C)c(Cl)cn1)CC2 |
| 650 | COCC(=O)Nc1cn2c(n1)CN(c1cc(-c3ncc(C)cc3C)c(Cl)cn1)CC2 |
